# Measurements: patent US20140193531A1, “Aqueous extracts of deschampsia antarctica” (Uxmal S.A, priority 2012, published 2014)
# Columns and labels:
# [1] = system: HaCaT cells; format: cell-based, human
# Procedure: For this assay, 100,000 cells were seeded in a 24-well plate at a total volume of 500 ul in a complete culture medium. After incubating for 24 hours at 37° C. in an atmosphere of 5% CO2, the cells were irradiated with different concentrations of UV light in an irradiation system inside a type 2 biosafety laminar flow hood. The system consisted of 2 florescent tubes, one UVA-emitting 36 W PL-L (320-400 nm) and one UVB-emitting 20 W TL (290-320 nm) (Philips, Eindhoven, the Netherlands). Both tubes were located 5 cm from the bottom of the well to produce homogeneous irradiation intensity. The irradiation intensity was monitored with radiometers for UVB (Solarmeter 6.2 digital UVB radiometer, Solartech Inc., Harrison Township, Mich.) and UVA (Tecpel, CHY-732, Taiwan). The HaCaT cells were irradiated at different time intervals (Table 5) to reach the different accumulative doses of UVA and UVB (Gao et al. 2007). After irradiation with UVA+UVB light, the cells were incubated for 24 hours and the viability of the cells was measured with the MTS assay.
# In this assay, 100,000 cells were seeded in a 24-well plate. After incubating for 24 hours at 37° C. in an atmosphere of 5% de CO2, the cells were washed with PBS and incubated with AEDA doses of between 4.5 and 0.5 mg/ml previously diluted in PBS. […]
# [2] = system: IL-6 secretion in TNFα-stimulated 3T3-L1 adipocytes; assay: TNFα-stimulated IL-6 secretion in 3T3-L1 adipocytes; format: cell-based, Mouse; settings: data not shown
# Procedure: Post-differentiation, D6/D7 adipocytes were treated with test material 4 h prior to the addition of TNFα at a final concentration of 10 ng/mL. Following overnight incubation of approximately 18 h, the supernatant media were removed and assayed for IL-6. IL-6 secreted into the medium in response to TNFα stimulation was quantified using the Quantikine® Mouse IL-6 Immunoassay kit Immunoassay kit with no modifications (R&D Systems, Minneapolis, Minn.). Experiments assessing the anti-inflammatory activity of the test samples were repeated a minimum of 2 independent times. For statistical analysis, the effects of test materials IL-6 secretion were normalized, respectively, to the TNFα positive control to generate IL-6 indexes. Differences among the treatments were determined by analysis of variance and student's least significant difference test without correction for multiple comparisons; the nominal 5% probability of a type I error was used. Ninety-five percent CI were computed using the ANOVA error mean square estimate of variance (Excel®, Microsoft, Redmond, Wash.).
Structure (SMILES),effect on irradiated keratinocytes at higher doses [1],increase of IL-6 secretion above the TNFα positive control [2]
COc1cc(/C=C/C(=O)O)ccc1O [ferulic acid],possible photocytotoxic effect,–
C=C[C@@]1(C)CC(=O)[C@]2(O)[C@@]3(C)[C@@H](O)CCC(C)(C)[C@@H]3[C@H](O)[C@H](OC(C)=O)[C@@]2(C)O1 [Forskolin],–,over 100%
